Data published in ChEMBL document CHEMBL2440091, “The enzyme 3-hydroxykynurenine transaminase as potential target for 1,2,4-oxadiazoles with larvicide activity against the dengue vector Aedes aegypti” (2013).
Converted amounts (≈) assume the structure as drawn. The source made the active and inactive calls. No cut-off for these calls is given here.

Experiments:
[1] = test system: Aedes aegypti; assay: Larvicidal activity against fourth instar larvae of Aedes aegypti assessed as mortality after 48 hrs; assay type: functional
[2] = test system: Aedes aegypti; assay: Larvicidal activity against fourth instar larvae of Aedes aegypti assessed as induction of alterations in pigmentation pattern at 100 ppm after 24 hrs by microscopic analysis; assay type: functional, organism-based

Structure (SMILES): O=C(O)CCCc1nc(-c2ccccc2)no1
- LC50 [1]: 92.7 µg/mL (≈ 399 µM)

Structure (SMILES): O=C(O)CCc1nc(-c2ccc(Cl)cc2)no1
- LC50 [1]: 28.1 µg/mL (≈ 111 µM)

Structure (SMILES): O=C(O)CCCc1nc(-c2ccc(Cl)cc2)no1
- LC50 [1]: 34.9 µg/mL (≈ 131 µM)

Structure (SMILES): O=C(O)CCCc1nc(-c2ccc3c(c2)OCO3)no1
- LC50 [1]: 72.9 µg/mL (≈ 264 µM)

Structure (SMILES): Cc1ccccc1-c1noc(CCC(=O)O)n1
- LC50 [1]: 70.9 µg/mL (≈ 305 µM)

Structure (SMILES): OCCCc1cc(-c2ccccc2)no1
- LC50 [1]: > 100 µg/mL

Structure (SMILES): Cc1ccc(-c2noc(CCC(=O)O)n2)cc1
- LC50 [1]: 65.8 µg/mL (≈ 283 µM)

Structure (SMILES): O=C(O)CCc1cc(-c2ccccc2)no1
- Activity [2]: Active
- LC50 [1]: 82.8 µg/mL (≈ 381 µM)

Structure (SMILES): O=C(O)CCc1nc(-c2ccc(F)cc2)no1
- LC50 [1]: 81.2 µg/mL (≈ 344 µM)

Structure (SMILES): COC(=O)CCc1cc(-c2ccccc2)no1
- Activity [2]: Active
- LC50 [1]: 13.2 µg/mL (≈ 57.1 µM)

Structure (SMILES): COc1ccc(-c2noc(CCCC(=O)O)n2)cc1
- LC50 [1]: > 100 µg/mL

Structure (SMILES): COC(=O)CCc1nc(-c2ccccc2)no1
- LC50 [1]: 30.6 µg/mL (≈ 132 µM)

Structure (SMILES): COC(=O)CCCc1nc(-c2ccc(Cl)c(Cl)c2)no1
- LC50 [1]: 6.8 µg/mL (≈ 21.6 µM)

Structure (SMILES): O=C(O)Cc1nc(-c2ccccc2)no1
- LC50 [1]: > 100 µg/mL

Structure (SMILES): O=C(O)CCc1nc(-c2ccc(Br)cc2)no1
- Activity [2]: Active
- LC50 [1]: 15.2 µg/mL (≈ 51.2 µM)

Structure (SMILES): O=C(O)Cc1nc(-c2ccc(Cl)cc2)no1
- LC50 [1]: 49.3 µg/mL (≈ 207 µM)

Structure (SMILES): CC(=O)CCc1nc(-c2ccccc2)no1
- LC50 [1]: > 100 µg/mL

Structure (SMILES): O=C(O)Cc1nc(-c2ccc(Br)cc2)no1
- LC50 [1]: 67.9 µg/mL (≈ 240 µM)

Structure (SMILES): O=C(O)CCCc1nc(-c2ccc(I)cc2)no1
- LC50 [1]: 16.2 µg/mL (≈ 45.2 µM)

Structure (SMILES): Cc1cccc(-c2noc(CCC(=O)O)n2)c1
- LC50 [1]: 63.8 µg/mL (≈ 275 µM)

Structure (SMILES): O=C(O)CCCc1nc(-c2ccc(Br)cc2)no1
- LC50 [1]: 10.6 µg/mL (≈ 34.1 µM)

Structure (SMILES): Cc1ccc(-c2noc(CC(=O)O)n2)cc1
- LC50 [1]: 92.3 µg/mL (≈ 423 µM)

Structure (SMILES): Cc1cccc(-c2noc(CCCC(=O)O)n2)c1
- LC50 [1]: 75.9 µg/mL (≈ 308 µM)

Structure (SMILES): COc1ccc(-c2noc(CCC(=O)O)n2)cc1
- LC50 [1]: 71.5 µg/mL (≈ 288 µM)

Structure (SMILES): COC(=O)CCCc1nc(-c2ccccc2)no1
- LC50 [1]: 59.9 µg/mL (≈ 243 µM)

Structure (SMILES): O=C(O)CCc1nc(-c2ccccc2)no1
- LC50 [1]: 98.6 µg/mL (≈ 452 µM)

Structure (SMILES): O=C(O)CCc1nc(-c2ccc([N+](=O)[O-])cc2)no1
- LC50 [1]: 50.5 µg/mL (≈ 192 µM)
